Like-named read-outs stand apart in the source and are kept apart here.
Tests used:
[1] = system: hypothermia induced by reserpine; experiment: Anti-reserpine activity: antagonistic effect on hypothermia induced by reserpine; assay type: in vivo, male STD-ddY strain mice; conditions: Mus musculus, po, 4 h, p.o., reserpine 5 mg/kg i.p.
Method: Pharmacological experiments have been done on the compound of the present invention, some known and novel analogous compounds and an antidepressant on the market, as mentioned below. In the experiments, ED50 was calculated by Litchfield-Wilcoxon method. This effect was examined according to the method of […]. 2, 725 (1963)], using male STD-ddY strain mice weighing 20-25 g. […] Rectal temperature of each mouse was measured 4 hours later with a thermister (Shibaura Electric, BMG III-130).

[2] = system: catalepsy induced by reserpine; experiment: Anti-reserpine activity: antagonistic effect on catalepsy induced by reserpine; assay type: in vivo, male STD-ddY strain mice; conditions: Mus musculus, po, 1 h
Method: In the experiments, ED50 was calculated by Litchfield-Wilcoxon method. Male STD-ddY strain mice, weighing […], were used in groups of 10 mice each. […] The mice were tested for catalepsy 1 hour after the administration of test compounds. ED50 was calculated for each compound.

[3] = system: ptosis induced by tetrabenazine; experiment: Anti-tetrabenazine activity: antagonistic effect on ptosis induced by tetrabenazine; assay type: in vivo, male STD-ddY strain mice; conditions: Mus musculus, po; tetrabenazine 70 mg/kg i.p.; Table 2
Method: Pharmacological experiments have been done on the compound of the present invention, some known and novel analogous compounds and an antidepressant on the market, as mentioned below. In the experiments, ED50 was calculated by Litchfield-Wilcoxon method. Male STD-ddY strain mice, weighing 20-25 g, were used in groups of 10 mice each. […] Two hours after the tetrabenazine injection, the degree of eyelid closure (ptosis) was assessed on the basis of macroscopic scoring (0: no closure of the eyelid, 1: 1/4 closure, 2: 2/4 closure, 3: 3/4 closure and 4: complete closure), essentially according to the method of P. A. J. Janssen [Arzneim. Forsch. 15, 104 (1965)]. ED50 was calcuated for each compound.

[4] = system: mouse-killing behavior of olfactory bulb-ablated rats; experiment: Suppressing effect on mouse-killing behavior in olfactory bulb-ablated rats; assay type: in vivo, male Wistar strain rats; conditions: Rattus norvegicus, ip, 1 h, read-out: Suppressing effect on mouse-killing behavior of olfactory bulb-ablated rats, ED50
Method: (§1) Pharmacological experiments have been done on the compound of the present invention, some known and novel analogous compounds and an antidepressant on the market, as mentioned below. In the experiments, ED50 was calculated by Litchfield-Wilcoxon method.
Male Wistar strain rats, weighing 240-260 g, which had developed mouse-killing behavior after ablation of the olfactory bulb according to the method of Z. P. Horovitz [Int. J. Neuropharmacol. 5, 405 (1966)], were used in groups of 15 animals each. Each test compound was given intraperitoneally to the rats in 6 different doses, and 1 hours later the rats were each tested as to whether they killed a mouse or not. ED50 was calculated for each compound.

[5] = system: spontaneous locomotor activity; experiment: Inhibitory effect on spontaneous locomotor activity; assay type: in vivo, male STD-ddY strain mice; conditions: for ED50: Mus musculus, po, read-out: Spontan. locomotor ED50; for Inhibition of spontaneous locomotion (in words): p.o.
Method: as §1
Male mice of STD-ddY strain, weighing 20-25 g, were used in groups of 5 mice each. Each test compound was given orally to the mice in 5 different doses, and 2 hours later the spontaneous locomotor activity of each mouse was measured for 3 minutes by means of an Animex locomotor activity meter (made by Farad Electronics). ED50 was calculated for each compound. The ED50 means the dose of test compound in which the locomotor activity was reduced to 50% of that of control group receiving saline.

[6] = system: methamphetamine-induced locomotor activity; experiment: Anti-methamphetamine effect (inhibitory effect on methamphetamine-induced locomotor activity); assay type: in vivo, male STD-ddY strain mice; conditions: for ED50: Mus musculus, ip, read-out: Anti-methamphetamine ED50; for Antagonizing methamphetamine-induced locomotor activity (in words): i.p.
Method: as §1
Male STD-ddY strain mice, weighing 20-25 g, were used in groups of 10 mice each. Groups of mice were injected intraperitoneally with 4 mg/kg of methamphetamine, and 30 minutes later each test compound was injected intraperitoneally in 3 different doses. One hour after the injection of methamphetamine, locomotor activity of each mouse was measured for 10 minutes with an Animex locomotor activity meter.

[7] = system: brain homovanillic acid (HVA); experiment: Effect on brain monoamine metabolites: HVA; assay type: in vivo, male Wistar strain rats; conditions: 100 mg/kg p.o.; for Brain HVA, % of control: *P<0.01
Method: (§2) Each test compound was given orally to the rats in a dose of 100 mg/kg and, 1, 3 and 6 hours later the rats were sacrificed. […] The concentrations of the monoamine metabolites were calculated in terms of ng/g wet brain tissue and expressed as % of the concentrations of controls receiving saline.

[8] = system: brain 3-methoxy-4-hydroxyphenylethylene glycol sulfate (MOPEG-SO4); experiment: Effect on brain monoamine metabolites: MOPEG-SO4; assay type: in vivo, male Wistar strain rats; conditions: 100 mg/kg p.o.; for Brain MOPEG-SO4, % of control: *P<0.01
Method: as §2

[9] = system: brain 5-hydroxyindoleacetic acid (5-HIAA); experiment: Effect on brain monoamine metabolites: 5-HIAA; assay type: in vivo, male Wistar strain rats; conditions: 100 mg/kg p.o., *P<0.01
Method: as §2

[10] = system: tremorine-induced tremor; experiment: Anti-tremorine activity (antagonistic effect on tremorine-induced tremor); assay type: in vivo, male STD-ddY strain mice; conditions: Mus musculus, po, read-out: Anti-tremorine activity ED50
Method: as §1
Male STD-ddY strain mice, weighing 20-25 g, were used in groups of 5 mice each. Each test compound was given orally to the mice in 5 different doses, and 2 hours later 20 mg/kg of tremorine was injected intraperitoneally. Half an hour after the injection of tremorine, each mouse was examined macroscopically for tremor severity, according to the rating scale with the scores 0, 1, 2, and 3 depending on the severity. ED50 was calculated for each compound. The ED50 means the dose of test compound in which the tremorine-induced tremor was inhibited by 50% in severity.

[11] = system: spontaneous and methamphetamine-induced locomotor activities; experiment: Neuroleptics-like activity, overall (Test 2); assay type: in vivo, male STD-ddY strain mice; conditions: overall conclusion
[12] = system: antidepressant activity; experiment: Antidepressant activity, overall (Test 1); assay type: in vivo, male STD-ddY strain mice; male Wistar strain rats
Method: This effect was examined according to the method of […]. 2, 725 (1963)], using male STD-ddY strain mice weighing 20-25 g. […] Rectal temperature of each mouse was measured 4 hours later with a thermister (Shibaura Electric, BMG III-130). […] Male STD-ddY strain mice, weighing […], were used in groups of 10 mice each. […] The mice were tested for catalepsy 1 hour after the administration of test compounds. ED50 was calculated for each compound. […] Male STD-ddY strain mice, weighing 20-25 g, were used in groups of 10 mice each. […] Two hours after the tetrabenazine injection, the degree of eyelid closure (ptosis) was assessed on the basis of macroscopic scoring (0: no closure of the eyelid, 1: 1/4 closure, 2: 2/4 closure, 3: 3/4 closure and 4: complete closure), essentially according to the method of P. A. J. Janssen [Arzneim. Forsch. 15, 104 (1965)]. ED50 was calcuated for each compound. […] Male Wistar strain rats, weighing 240-260 g, which had developed mouse-killing behavior after ablation of the olfactory bulb according to the method of Z. P. Horovitz [Int. J. Neuropharmacol. 5, 405 (1966)], were used in groups of 15 animals each. […] ED50 was calculated for each compound.

[13] = Table 1, read-out: Anti-reserpine activity ED50, hypothermia
[14] = Table 2, read-out: Anti-reserpine ED50, hypothermia

`CN(C)CCCN1c2ccccc2CCc2ccccc21` [Compound 6, 5-(3-dimethylaminopropyl)-10,11-dihydro-5H-dibenz[b,f]azepine] showed an ED50 [1, 13] of 21.5 mg/kg, an ED50 [1, 14] of 21.5 mg/kg and an ED50 ([2]; read-out: Anti-reserpine ED50, catalepsy) of 38.3 mg/kg. It also gave an ED50 ([2]; read-out: Anti-reserpine activity ED50, catalepsy) of 38.3 mg/kg, an ED50 [3] of 4.9 mg/kg and an ED50 [4] of 5.5 mg/kg. For the same molecule, the ED50 ([5]; 2 h) was greater than 200 mg/kg, the “Inhibition of spontaneous locomotion (in words)” value (shortened to “Inhibition”) [5] was “devoid of both activities” and the ED50 [6] was greater than 30 mg/kg. The “Antagonizing methamphetamine-induced locomotor activity (in words)” value [6] was “devoid of both activities”, the “Brain HVA concentration / dopamine turnover (in words)” value [7] was “devoid of such activity” and the “Brain HVA, % of control” value ([7]; 1 hour) was 110 % of control. For the same molecule, the “Brain HVA, % of control” value ([7]; 3 hours) was 98 % of control, the “Brain MOPEG-SO4 concentration / noradrenaline turnover (in words)” value [8] was “significant decrease in brain MOPEG-SO4 concentration” and the “Brain MOPEG-SO4, % of control” value ([8]; 1 hour) was 87 % of control. For the same molecule, the “Brain MOPEG-SO4, % of control” value ([8]; 3 hours) was 80 % of control, the “Brain MOPEG-SO4, % of control” value ([8]; 6 hours) was 70 % of control and the “Brain 5-HIAA, % of control” value ([9]; 1 hour) was 88 % of control. For the same molecule, the “Brain 5-HIAA, % of control” value ([9]; 3 hours) was 84 % of control, the “Brain 5-HIAA, % of control” value ([9]; 6 hours) was 73 % of control and the ED50 [10] was 48.3 mg/kg. The “Neuroleptics-like activity (in words)” value [11] was “not seen”.
`OC(CCN1CCCCC1)(c1ccccc1)C1CC2C=CC1C2` (stereo not drawn) [Compound 8, 5-norbornen-2-yl-phenyl-1-piperidinepropanol] gave an ED50 [10] of 11.4 mg/kg.
Molecule `Clc1ccc2nc(N3CCN(c4ccccc4)CC3)cc(-c3ccccc3)c2c1` [Compound 2, 6Chloro-2-(4-phenyl-1-piperazinyl)-4-phenylquinoline] has an ED50 [1, 13] greater than 100 mg/kg, an ED50 ([2]; p.o., reserpine 5 mg/kg i.p., Table 1, read-out: Anti-reserpine activity ED50, catalepsy) greater than 100 mg/kg and an ED50 ([5]; 2 hours after dosing) greater than 200 mg/kg. For the same molecule, the “Inhibition” value [5] was “devoid of both activities”, the ED50 ([6]; methamphetamine 4 mg/kg i.p.) was greater than 30 mg/kg and the “Antagonizing methamphetamine-induced locomotor activity (in words)” value [6] was “devoid of both activities”. For the same molecule, the “Anti-reserpine activity (in words)” value ([12]; hypothermia and catalepsy, p.o.) was “devoid of the anit-reserpine activity” and the “Neuroleptics-like activity (in words)” value [11] was “not seen”.
For `CCCN1CCN(c2cc(-c3ccccc3)c3ccccc3n2)CC1.Cl.Cl` [Compound 4, 2-(4-n-Propyl-1-piperazinyl)-4-phenylquinoline dihydrochloride], the ED50 [1, 14] was 13.6 mg/kg, the ED50 ([2]; p.o., reserpine 5 mg/kg i.p., Table 2, read-out: Anti-reserpine ED50, catalepsy) was 4.4 mg/kg and the ED50 [3] was 8.2 mg/kg. For the same molecule, the ED50 ([5]; 2 hours after dosing) was 62.2 mg/kg, the “Inhibition” value [5] was “as potent as compound A” and the ED50 ([6]; methamphetamine 4 mg/kg i.p.) was 13.2 mg/kg. The “Antagonizing methamphetamine-induced locomotor activity (in words)” value [6] was “somewhat less potent” and the “Antidepressant activity (in words)” value ([12]; overall conclusion) was “inferior to compound A”.
